Data as given in patent publication US5534515A, “Pyrrolopyridazines having gastrointestinal protective effects” (BYK Gulden Lomberg Chemische Fabrik GmbH, priority 1991, dated 1996).

Tested on: acid secretion of the perfused rat stomach stimulated by pentagastrin
Experiment: Investigation of the secretion-inhibiting effect on the perfused rat stomach
Format: in vivo, rat (CD rats, female)
Conditions: for Maximum inhibition of acid secretion: N = 3, vs untreated control group, pentagastrin stimulation
Text: The effect of the compounds according to the invention after intravenous administration on the acid secretion of the perfused rat stomach stimulated by pentagastrin in vivo is shown in the following Table 2.
The abdomen of anesthesized rats (CD rats, female, 200-250 g; 1.5 g/kg i.m. of urethane) was opened after tracheotomy by a median upper abdominal incision and a PVC catheter was fixed transorally in the esophagus and a further one via the pylorus in such a way that the ends of the tubes just projected into the stomach lumen. The catheter leading from the pylorus led outwards via a side opening in the right-hand abdominal wall.
After thorough irrigation (about 50-100 ml), a flow of warm physiological NaCl solution at 37° C. was continuously passed through the stomach (0.5 ml/min, pH 6.8-6.9; Brun-Unita I). The pH (pH meter 632, glass electrode EA 147; .phi.=5 mm, Metrohm) was determined in the effluent collected (25 ml measuring cylinder) at 15 min intervals in each case and the secreted HCl by titration with a freshly prepared 0.01 N NaOH solution to pH 7 (Dosimat 655 Metrohm).
The stimulation of gastric secretion was effected by continuous infusion of 1 μg/kg (=1.65 ml/h) i.v. of pentagastrin (left femoral vein) about 30 min after the end of the operation (i.e. after determination of 2 preliminary fractions). The substances to be tested were administered intravenously (left jugular vein) in a 1 ml/kg liquid volume 60 min after the start of continuous pentagastrin infusion.
The body temperature of the animals was kept at a constant 37.8°-38° C. by infrared irradiation and heating pads (automatic, stepless control via rectal temperature sensor).
The maximum decrease in acid secretion (15 min fractions) of each treated group compared to that of the untreated control group (=100%) was used as a measure of the secretion-inhibiting effect.

Cc1c(CO)c2cnnc(OCc3ccc(F)cc3)c2n1Cc1ccccc1 [Example 1a, 1-Benzyl-7-(4-fluorobenzyloxy)-3-hydroxymethyl-2-methylpyrrolo[2,3-d]pyridazine]
ED50 (Rattus norvegicus, iv, dose (interpolated) which causes a maximum inhibition of HCl secretion by 50%, read-out: approx. ED50): ~1.1 µmol/kg | Maximum inhibition of acid secretion (dose 0.3 μmol/kg i.v.): 22% | Maximum inhibition of acid secretion (dose 1.0 μmol/kg i.v.): 52% | Maximum inhibition of acid secretion (dose 3.0 μmol/kg i.v.): 70% | Maximum inhibition of acid secretion (dose 10.0 μmol/kg i.v.): 94%
